Assay results as given in patent publication US20260125375A1 (Pfizer Inc., priority 2022, published 2026).

What was measured:
C-CBL (46-435) = molecular target: T1, C-CBL (46-435) (Homo sapiens, UniProt P22681); assay: Surface Plasmon Resonance (SPR) assay, binding affinity and kinetics, C-CBL; conditions: SPR at 10° C., biotinylated C-CBL (46-435) on streptavidin chip; geometric mean; read-out: C-CBL SPR Kd (nM) GMean
T1 construct: N-terminal biotinylated WT CBL-B (36-427) and C-CBL (46-435) were captured on a streptavidin (SA) coated sensor chip
T1 sequence (P22681 46-435): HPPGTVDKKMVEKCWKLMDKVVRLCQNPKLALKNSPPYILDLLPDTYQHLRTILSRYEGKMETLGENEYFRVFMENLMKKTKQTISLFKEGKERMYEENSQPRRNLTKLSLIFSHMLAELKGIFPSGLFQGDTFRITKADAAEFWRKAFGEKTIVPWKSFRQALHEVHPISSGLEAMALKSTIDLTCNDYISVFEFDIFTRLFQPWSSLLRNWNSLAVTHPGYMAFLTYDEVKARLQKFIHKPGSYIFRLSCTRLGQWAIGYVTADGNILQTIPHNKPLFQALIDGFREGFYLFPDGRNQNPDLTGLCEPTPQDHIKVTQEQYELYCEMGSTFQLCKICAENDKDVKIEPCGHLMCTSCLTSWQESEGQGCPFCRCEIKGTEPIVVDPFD
Outline: (§1)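 SPR kinetics at 10° C, run either single-cycle (0.001–1 μM, 3-fold, 6 points, 120 s on, >5400 s off) or multi-cycle (10 points, 2-fold, top 10 or 100 μM, 90 s on). Proteins were N-biotinylated CBL-B (36-427) and C-CBL (46-435) on SA surfaces, in pH 7.2 HEPES, 2% DMSO.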

C-CBL (residues 46-435) = molecular target: T2, C-CBL (residues 46-435) (Homo sapiens, UniProt P22681); assay: Ligand Displacement Assay (LDA), HTRF competitive binding against BODIPY-labeled fluorescent tracer, C-CBL; conditions: geometric mean of the number of tests, read-out: C-CBL Ki (nM) GMean
T2 construct: Purified CBL-B (residues 36-427) and C-CBL (residues 46-435) proteins from baculovirus-infected insect cells; made in house; host or cells: baculovirus-infected insect cells
T2 sequence (P22681 46-435): T1 sequence (P22681 46-435)
Outline: (§2)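 Ki values, given as geometric means of repeated tests, come from TR-FRET displacement of a BODIPY-labelled tracer from terbium-streptavidin-bound, AviTag-biotinylated protein made in baculovirus-infected insect cells. Compounds ran as three-fold dilutions in duplicate, […], 2% DMSO.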

WT CBL-B (36-427) = molecular target: T3, WT CBL-B (36-427) (Homo sapiens, UniProt Q13191); assay: Surface Plasmon Resonance (SPR) assay, binding affinity and kinetics, CBL-B; conditions: SPR at 10° C., biotinylated WT CBL-B (36-427) on streptavidin chip; geometric mean; read-out: CBL-B SPR Kd (nM) GMean
T3 construct: N-terminal biotinylated WT CBL-B (36-427) and C-CBL (46-435) were captured on a streptavidin (SA) coated sensor chip
Outline: as §1

CBL-B (residues 36-427) = molecular target: T4, CBL-B (residues 36-427) (Homo sapiens, UniProt Q13191); assay: Ligand Displacement Assay (LDA), HTRF competitive binding against BODIPY-labeled fluorescent tracer, CBL-B; conditions: geometric mean of the number of tests, read-out: CBL-B Ki (nM) GMean
T4 construct: Purified CBL-B (residues 36-427) and C-CBL (residues 46-435) proteins from baculovirus-infected insect cells; made in house; host or cells: baculovirus-infected insect cells
Outline: as §2

Structure (SMILES): Cn1cnnc1[C@@H](c1cccc(-c2n[nH]c3c(CN4C[C@@H](O)[C@@H](O)C4)nc(C(F)(F)F)cc23)c1)C1CCC1 [Example C75, (3R,4S)-1-{[3-{3-[(R)-cyclobutyl(4-methyl-4H-1,2,4-triazol-3-yl)methyl]phenyl}-5-(trifluoromethyl)-1H-pyrazolo[3,4-c]pyridin-7-yl]methyl}pyrrolidine-3,4-diol]
- Kd (C-CBL (46-435)): 97.9 nM
- Ki (C-CBL (residues 46-435)): 54.8 nM
- Kd (WT CBL-B (36-427)): 4.7 nM
- Ki (CBL-B (residues 36-427)): 5 nM

Structure (SMILES): Cn1cnnc1[C@@H](c1cccc(-c2n[nH]c3c(CN4C[C@H](O)[C@@H](O)C4)nc(C(F)(F)F)cc23)c1)C1CCC1 [Example C76, (3S,4S)-1-{[3-{3-[(R)-cyclobutyl(4-methyl-4H-1,2,4-triazol-3-yl)methyl]phenyl}-5-(trifluoromethyl)-1H-pyrazolo[3,4-c]pyridin-7-yl]methyl}pyrrolidine-3,4-diol]
- Kd (C-CBL (46-435)): 52.1 nM
- Ki (C-CBL (residues 46-435)): 41.4 nM
- Kd (WT CBL-B (36-427)): 2.5 nM
- Ki (CBL-B (residues 36-427)): 3.3 nM

Structure (SMILES): Cn1cnnc1[C@@H](c1cccc(-c2n[nH]c3c(CN4CC[C@H](O)C4)nc(C(F)(F)F)cc23)c1)C1CCC1 [Example C77, (3S)-1-{[3-{3-[(R)-cyclobutyl(4-methyl-4H-1,2,4-triazol-3-yl)methyl]phenyl}-5-(trifluoromethyl)-1H-pyrazolo[3,4-c]pyridin-7-yl]methyl}pyrrolidin-3-ol]
- Kd (C-CBL (46-435)): 54.9 nM
- Ki (C-CBL (residues 46-435)): 29.5 nM
- Kd (WT CBL-B (36-427)): 2.5 nM
- Ki (CBL-B (residues 36-427)): 2.4 nM

Structure (SMILES): Cn1cnnc1CC1(c2cccc(-c3n[nH]c4c(CNC5CC(F)(F)C5)nc(C(F)(F)F)cc34)c2)COC1 [Example C78, 3,3-difluoro-N-{[3-(3-{3-[(4-methyl-4H-1,2,4-triazol-3-yl)methyl]oxetan-3-yl}phenyl)-5-(trifluoromethyl)-1H-pyrazolo[3,4-c]pyridin-7-yl]methyl}cyclobutan-1-amine]
- Kd (C-CBL (46-435)): 144 nM
- Ki (C-CBL (residues 46-435)): 253 nM
- Kd (WT CBL-B (36-427)): 10 nM
- Ki (CBL-B (residues 36-427)): 56.6 nM

Structure (SMILES): CNCc1nc(C(F)(F)F)cc2c(-c3cccc([C@H](c4nncn4C)C4CCC4)c3)n[nH]c12 [Example C103, 1-[3-{3-[(R)-cyclobutyl(4-methyl-4H-1,2,4-triazol-3-yl)methyl]phenyl}-5-(trifluoromethyl)-1H-pyrazolo[3,4-c]pyridin-7-yl]-N-methylmethanamine]
- Kd (C-CBL (46-435)): 349 nM
- Ki (C-CBL (residues 46-435)): 389 nM
- Kd (WT CBL-B (36-427)): 20.5 nM
- Ki (CBL-B (residues 36-427)): 46 nM

Structure (SMILES): Cn1cnnc1[C@@H](c1cccc(-c2n[nH]c3c(CN[C@@H]4CCOC4)nc(C(F)(F)F)cc23)c1)C1CCC1 [Example C104, (3R)-N-{[3-{3-[(R)-cyclobutyl(4-methyl-4H-1,2,4-triazol-3-yl)methyl]phenyl}-5-(trifluoromethyl)-1H-pyrazolo[3,4-c]pyridin-7-yl]methyl}oxolan-3-amine]
- Kd (C-CBL (46-435)): 328 nM
- Ki (C-CBL (residues 46-435)): 218 nM
- Kd (WT CBL-B (36-427)): 8.2 nM
- Ki (CBL-B (residues 36-427)): 28 nM

Structure (SMILES): Cn1cnnc1[C@@H](c1cccc(-c2n[nH]c3c(CNC4CCC4)nc(C(F)(F)F)cc23)c1)C1CCC1 [Example C105, N-{[3-{3-[(R)-cyclobutyl(4-methyl-4H-1,2,4-triazol-3-yl)methyl]phenyl}-5-(trifluoromethyl)-1H-pyrazolo[3,4-c]pyridin-7-yl]methyl}cyclobutanamine]
- Kd (C-CBL (46-435)): 132 nM
- Ki (C-CBL (residues 46-435)): 244 nM
- Kd (WT CBL-B (36-427)): 4.2 nM
- Ki (CBL-B (residues 36-427)): 29.4 nM

Structure (SMILES): Cn1cnnc1[C@@H](c1cccc(-c2n[nH]c3c(CN4CC(F)C4)nc(C(F)(F)F)cc23)c1)C1CCC1 [Example C106, 3-{3-[(R)-cyclobutyl(4-methyl-4H-1,2,4-triazol-3-yl)methyl]phenyl}-7-[(3-fluoroazetidin-1-yl)methyl]-5-(trifluoromethyl)-1H-pyrazolo[3,4-c]pyridine]
- Kd (C-CBL (46-435)): 265 nM
- Ki (C-CBL (residues 46-435)): 475 nM
- Kd (WT CBL-B (36-427)): 5.9 nM
- Ki (CBL-B (residues 36-427)): 41.6 nM
